# Experimental data taken from patent US7462614B2, “Imidazotriazine compounds” (Smithkline Beecham Corporation, priority 2003, dated 2008).
# Biological target: T1, truncated human PLK1 (kinase domain) (Homo sapiens, UniProt P53350)
# T1 construct: made in house; host or cells: baculovirus-infected T. ni insect cells
# Assay: Assay for Inhibition of PLK1 (33P SPA enzyme activity)
# Type: biochemical
# Details: 1 μM ATP, 2 nM enzyme; read-out: Ave pIC50 PLK Enzyme Inhibition (converted)
# Description: I. Assay for Inhibition of PLK1
# A. Preparation of 6× N-Terminal His-Tagged PLK Kinase Domain
# All procedures are performed at 4° C. Cells are lysed in 25 mM HEPES, 200 mM NaCl, 25 mM imidazole; pH 8.0. The homogenate is centrifuged at 14K rpm in a SLA-1500 rotor for 40 min and the supernatant filtered through a 1.2 micron filter. The supernatant is loaded onto a Nickel chelating Sepharose (Amersham Pharmacia) column and washed with 25 mM HEPES, 500 mM NaCl, 25 mM imidazole; pH 8.0. […] PLK is concentrated using a 10 kDa molecular weight cutoff membrane and then loaded onto a Superdex 75 gel filtration (Amersham BioSciences) column equilibrated in 25 mM HEPES, 1 mM DTT, 500 mM NaCl; pH 8.0. Fractions containing PLK are determined by SDS-PAGE. PLK is pooled, aliquoted and stored at […]. Samples are quality controlled using mass spectrometry.
# B. Enzyme Activity±Inhibitors is Determined As Follows:
# Compounds are added to the plate (1 μL in 100% DMSO).
# Immediately upon addition of enzyme and thorough mixing, add 20 uL per well into 384-well white plates containing compounds and controls. […] The enzymatic reaction is stopped with 50 μl of bead mix (50 mM EDTA, 2 mg/ml Streptavidin-coated SPA beads in Standard Dulbecco's PBS (without Mg^2+and Ca^2+), and 60 μM ATP).
# T1 sequence (P53350 21-346): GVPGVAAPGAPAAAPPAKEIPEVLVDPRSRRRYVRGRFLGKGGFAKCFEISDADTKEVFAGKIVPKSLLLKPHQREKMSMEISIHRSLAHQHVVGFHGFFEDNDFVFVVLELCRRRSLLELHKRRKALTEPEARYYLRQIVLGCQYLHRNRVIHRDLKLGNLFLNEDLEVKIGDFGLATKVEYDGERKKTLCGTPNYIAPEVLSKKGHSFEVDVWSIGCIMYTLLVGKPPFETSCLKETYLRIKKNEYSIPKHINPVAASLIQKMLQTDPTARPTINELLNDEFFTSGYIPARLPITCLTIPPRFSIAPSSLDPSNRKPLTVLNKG
row,IC50 [nM],SMILES
1,< 100,"COc1cc(Nc2ncc3c(C)nc(-c4cccc(N)c4)n3n2)cc(OC)c1OC [Example 31, 7-(3-Aminophenyl)-5-methyl-N-(3,4,5-trimethoxyphenyl)imidazo-[5,1-f][1,2,4]triazin-2-amine]"
2,100 to 10000,"COc1ccc(Nc2ncc3c(C)nc(C4CC4)n3n2)cc1 [Example 84, 7-Cyclopropyl-5-methyl-N-[4-(methyloxy)phenyl]-imidazo[5,1-f][1,2,4]triazin-2-amine]"
3,100 to 10000,"COc1ccc(Nc2ncc3c(C)nc(Cc4ccccc4)n3n2)cc1 [Example 88, 5-Methyl-N-[4-(methyloxy)phenyl]-7-(phenylmethyl)imidazo[5,1-f][1,2,4]triazin-2-amine]"
4,100 to 10000,"COc1cc(Nc2ncc3c(C)nc(-c4ccoc4)n3n2)cc(OC)c1OC [Example 36, 7-(3-Furyl)-5-methyl-N-(3,4,5-trimethoxyphenyl)imidazo[5,1-f][1,2,4]triazin-2-amine]"
5,100 to 10000,"COc1ccc(Nc2ncc3c(C)nc(-c4ccccc4F)n3n2)cc1 [Example 86, 7-(2-FluorophenylFluorophenyl)-5-methyl-N-[4-(methyloxy)phenyl]imidazo[5,1-f][1,2,4]triazin-2-amine]"
6,100 to 10000,"COc1cc(Nc2ncc3c(C)nc(-c4cccc(-c5ccccc5C(F)(F)F)c4)n3n2)cc(OC)c1OC [Example 61, 5-Methyl-7-[2′-(trifluoromethyl)-1,1′-biphenyl-3-yl]-N-(3,4,5-trimethoxyphenyl)imidazo[5,1-f][1,2,4]triazin-2-amine]"
7,> 10000,"COc1ccc(Nc2ncc3c(C)nc(-c4cc5ccccc5n4C)n3n2)cc1 [Example 78, 5-Methyl-7-(1-methyl-1H-indol-2-yl)-N-[4-(methyloxy)phenyl]imidazo[5,1-f][1,2,4]triazin-2-amine]"
8,100 to 10000,"COC(=O)c1ccc(-c2nc(C)c3cnc(Nc4cc(OC)c(OC)c(OC)c4)nn23)cc1 [Example 29, Methyl 4-{5-methyl-2-[(3,4,5-trimethoxyphenyl)amino]imidazo-[5,1-f][1,2,4]triazin-7-yl}benzoate]"
9,100 to 10000,"CCS(=O)(=O)c1ccc(OC)c(Nc2ncc3c(C)nc(-c4cccc(Br)c4)n3n2)c1 [Example 14, 7-(3-Bromophenyl)-N-[5-(ethylsulfonyl)-2-methoxyphenyl]-5-methylimidazo[5,1-f][1,2,4]triazin-2-amine]"
10,100 to 10000,"CCOC(=O)c1cncc(Nc2ncc3c(C)nc(-c4cccc(C(F)(F)F)c4)n3n2)c1 [Example 56, Ethyl 5-({5-methyl-7-[3-(trifluoromethyl)phenyl]imidazo[5,1-f][1,2,4]triazin-2-yl}amino)nicotinate]"
11,100 to 10000,"CSc1ccc(Nc2ncc3c(C)nc(-c4ccccc4)n3n2)cc1 [Example 95, 5-Methyl-N-[4-(methylthio)phenyl]-7-phenylimidazo[5,1-f][1,2,4]triazin-2-amine]"
12,100 to 10000,"COc1ccc(Nc2ncc3c(C)nc(C4CCCCC4)n3n2)cc1 [Example 85, 7-Cyclohexyl-5-methyl-N-[4-(methyloxy)phenyl]imidazo[5,1-f][1,2,4]triazin-2-amine]"
13,100 to 10000,"COc1cc(Nc2ncc3c(C)nc(-c4cccc(Nc5ccc(Cn6cncn6)cc5)c4)n3n2)cc(OC)c1OC [Example 64, 5-Methyl-7-(3-{[4-(1H-1,2,4-triazol-1-ylmethyl)phenyl]amino}-phenyl)-N-(3,4,5-trimethoxyphenyl)imidazo[5,1-f][1,2,4]triazin-2-amine]"
14,< 100,"COc1ccc(CCNC(C)=O)cc1Nc1ncc2c(C)nc(-c3cccc(C(F)(F)F)c3)n2n1 [Example 52, N-{2-[4-Methoxy-3-({5-methyl-7-[3-(trifluoromethyl)phenyl]-imidazo[5,1-f][1,2,4]triazin-2-yl}amino)phenyl]ethyl}acetamide]"
15,100 to 10000,"COc1cc(Nc2ncc3c(C)nc(-c4cccc(C#Cc5cn[nH]c5)c4)n3n2)cc(OC)c1OC [Example 58, 5-Methyl-7-[3-(1H-pyrazol-4-ylethynyl)phenyl]-N-(3,4,5-trimethoxyphenyl)imidazo[5,1-f][1,2,4]triazin-2-amine]"
16,100 to 10000,"COc1ccc(Nc2ncc3c(C)nc(-c4ccccc4Cl)n3n2)cc1 [Example 75, 7-(2-Chlorophenyl)-5-methyl-N-[4-(methyloxy)phenyl]imidazo[5,1-f][1,2,4]triazin-2-amine]"
17,100 to 10000,"Cc1nc(-c2ccccc2)n2nc(Nc3ccc(S(N)(=O)=O)cc3)ncc12 [Example 20, 4-[(5-Methyl-7-phenylimidazo[5,1-f][1,2,4]triazin-2-yl)amino]benzenesulfonamide]"

row,IC50 [nM],SMILES
1,> 10000,"COc1cc(Nc2ncc3c(C)nc(-c4cccc(Nc5ccc(-n6ccnc6)cc5)c4)n3n2)cc(OC)c1OC [Example 65, 7-(3-{[4-(1H-Imidazol-1-yl)phenyl]amino}phenyl)-5-nv-5-methyl-N-(3,4,5-trimethoxyphenyl)imidazo[5,1-f][1,2,4]triazin-2-amine]"
2,100 to 10000,"CC(=O)N1CCc2cc(Nc3ncc4c(C)nc(-c5ccccc5)n4n3)ccc21 [Example 99, N-(1-Acetyl-2,3-dihydro-1H-indol-5-yl)-5-methyl-7-phenylimidazo[5,1-f][1,2,4]triazin-2-amine]"
3,100 to 10000,"COc1cc(Nc2ncc3c(C)nc(-c4ccccc4[N+](=O)[O-])n3n2)cc(OC)c1OC [Example 2, 5-Methyl-7-(2-nitrophenyl)-N-(3,4,5-trimethoxyvhenyl)imidazo[5,1-f][1,2,4]triazin-2-amine]"
4,100 to 10000,"COc1cc(Nc2ncc3c(C)nc(-c4cccc(Nc5cccc(CS(=O)(=O)N(C)C)c5)c4)n3n2)cc(OC)c1OC [Example 67, N,N-Dimethyl-1-{3-[(3-{5-methyl-2-[(3,4,5-trimethoxyphenyl)amino]imidazo[5,1-f][1,2,4]triazin-7-yl}phenyl)amino]phenyl}methanesulfonamide]"
5,100 to 10000,"COc1cc(Nc2ncc3c(C)nc(-c4cc5ccccc5[nH]4)n3n2)cc(OC)c1OC [Example 32, 7-(1H-Indol-2-yl)-5-methyl-N-(3,4,5-trimethoxyphenyl)imidazo-[5,1-f][1,2,4]triazin-2-amine]"
6,< 100,"COc1ccc(CCN)cc1Nc1ncc2c(C)nc(-c3cccc(C(F)(F)F)c3)n2n1 [Example 53, N-[5-(2-Aminoethyl)-2-methoxyphenyl]-5-methyl-7-[3-(trifluoromethyl)phenyl]imidazo[5,1-f][1,2,4]triazin-2-amine]"
7,100 to 10000,"COc1ccc(Nc2ncc3c(C)nc(-c4ccco4)n3n2)cc1 [Example 81, 7-(2-Furanyl)-5-methyl-N-[4-(methyloxy)phenyl]imidazo-[5,1-f][1,2,4]triazin-2-amine]"
8,> 10000,"Cc1nc(-c2ccccc2)n2nc(NC3CCCCC3)ncc12 [Example 100, N-Cyclohexyl-5-methyl-7-phenylimidazo[5,1-f][1,2,4]triazin-2-amine]"
9,100 to 10000,"COc1ccc(Nc2ncc3c(C)nc(-c4ccoc4)n3n2)cc1 [Example 80, 7-(3-Furanyl)-5-methyl-N-[4-(methyloxy)phenyl]imidazo-[5,1-f][1,2,4]triazin-2-amine]"
10,100 to 10000,"COc1cc(Nc2ncc3c(C)nc(-c4cccc(-c5ccc(CC(N)C(=O)O)cc5)c4)n3n2)cc(OC)c1OC (stereo not shown) [Example 60, 2-Amino-3-(3′-{5-methyl-2-[(3,4,5-trimethoxyphenyl)amino]imidazo-[5,1-f][1,2,4]triazin-7-yl}-1,1′-biphenyl-4-yl)propanoic acid]"
11,100 to 10000,"Cc1nc(-c2ccccc2)n2nc(Nc3ccccc3)ncc12 [Example 105, 5-Methyl-N,7-diphenylimidazo[5,1-f][1,2,4]triazin-2-amine]"
12,100 to 10000,"COc1ccc(Nc2ncc3c(C)nc(-c4ccccc4)n3n2)cc1OC [Example 92, N-[3,4-Bis(methyloxy)phenyl]-5-methyl-7-phenylimidazo[5,1-f][1,2,4]triazin-2-amine]"
13,< 100,"Cc1nc(-c2cccc(C(F)(F)F)c2)n2nc(Nc3ccc(O)cc3)ncc12 [Example 49, 4-({5-Methyl-7-[3-(trifluoromethyl)phenyl]imidazo[5,1-f][1,2,4]triazin-2-yl}amino)phenol]"
14,100 to 10000,"COc1ccc(Nc2ncc3c(C)nc(-c4cn(C)c5ccccc45)n3n2)cc1 [Example 76, 5-Methyl-7-(1-methyl-1H-indol-3-yl)-N-[4-(methyloxy)phenyl]imidazo[5,1-f][1,2,4]triazin-2-amine]"
15,< 100,"COc1cc(Nc2ncc3c(C)nc(-c4ccc(F)cc4)n3n2)cc(OC)c1OC [Example 4, 7-(4-Fluorophenyl)-5-methyl-N-(3,4,5-trimethoxyphenyl)imidazo-[5,1-f][1,2,4]triazin-2-amine]"
16,100 to 10000,"COc1cc(Nc2ncc3c(C)nc(-c4ccccc4NC(=O)C(F)(F)F)n3n2)cc(OC)c1OC [Example 7, 2,2,2-Trifluoro-N-(2-{5-methyl-2-[(3,4,5-trimethoxyphenyl)amino]-imidazo[5,1-f][1,2,4]triazin-7-yl}phenyl)acetamide]"
17,100 to 10000,"Cc1nc(-c2ccccc2)n2nc(Nc3ccc(OCCN4CCOCC4)cc3)ncc12 [Example 102, 5-Methyl-N-(4-{[2-(4-morpholinyl)ethyl]oxy}phenyl)-7-phenylimidazo[5,1-f][1,2,4]triazin-2-amine]"
